# Data as given in ChEMBL document CHEMBL3885881, “DrugMatrix”.
# Organism: Rattus norvegicus
# Assay: DrugMatrix - Regimen: Daily Repeat
# Assay type: toxicity, organism-based, Sprague-Dawley
# Set-up: regimen Daily Repeat, gender Male, age 6-8 weeks
# Settings: in vivo, iv, vehicle 100 % SALINE; for ABSOLUTE BASOPHIL / ABSOLUTE EOSINOPHIL / ABSOLUTE LYMPHOCYTE / ABSOLUTE MONOCYTE / ABSOLUTE SEGMENTED NEUTROPHIL / BASOPHIL / EOSINOPHIL / ERYTHROCYTE COUNT / HEMATOCRIT / HEMOGLOBIN / LEUKOCYTE COUNT / LYMPHOCYTE / MEAN CORPUSCULAR HEMOGLOBIN / MEAN CORPUSCULAR HEMOGLOBIN CONCENTRATION / MEAN CORPUSCULAR VOLUME / MONOCYTE / NEUTROPHIL / NUCLEATED RED BLOOD CELLS / PLATELET COUNT: tissue Blood; for ALANINE AMINOTRANSFERASE / ALBUMIN / ALKALINE PHOSPHATASE / ASPARTATE AMINOTRANSFERASE / BLOOD UREA NITROGEN / CARBON DIOXIDE / CHLORIDE / CHOLESTEROL / CREATINE PHOSPHOKINASE / CREATININE / GLUCOSE / LACTATE DEHYDROGENASE / LIPASE / PHOSPHORUS / POTASSIUM / SODIUM / TOTAL BILIRUBIN / TOTAL PROTEIN / URIC ACID: tissue Plasma
# [1] = 0 mg/kg, 72 h, dose level Control, time 3 day
# [2] = 0 mg/kg, 120 h, dose level Control, time 5 day
# [3] = 0.05 mg/kg, 72 h, dose level Low, time 3 day
# [4] = 0.05 mg/kg, 120 h, dose level Low, time 5 day
smiles,measurement,setting,value
CC[C@]1(O)C[C@H]2CN(CCc3c([nH]c4ccccc34)[C@@](C(=O)OC)(c3cc4c(cc3OC)N(C=O)[C@H]3[C@@](O)(C(=O)OC)[C@H](OC(C)=O)[C@]5(CC)C=CCN6CC[C@]43[C@@H]65)C2)C1 [VINCRISTINE],ABSOLUTE BASOPHIL,[1],0 CELLS/uL
same,ABSOLUTE EOSINOPHIL,[1],0 CELLS/uL
same,ABSOLUTE LYMPHOCYTE,[1],7637.67 CELLS/uL
same,ABSOLUTE MONOCYTE,[1],67.83 CELLS/uL
same,ABSOLUTE SEGMENTED NEUTROPHIL,[1],661.17 CELLS/uL
same,BASOPHIL,[1],0%
same,EOSINOPHIL,[1],0%
same,ERYTHROCYTE COUNT,[1],5.38 x10E6/uL
same,HEMATOCRIT,[1],33.67%
same,HEMOGLOBIN,[1],12.88 G/DL
same,LEUKOCYTE COUNT,[1],8.37 x10E3/uL
same,LYMPHOCYTE,[1],91.17%
same,MEAN CORPUSCULAR HEMOGLOBIN,[1],23.95 pg
same,MEAN CORPUSCULAR HEMOGLOBIN CONCENTRATION,[1],38.23 G/DL
same,MEAN CORPUSCULAR VOLUME,[1],62.6 fL
same,MONOCYTE,[1],0.83%
same,NEUTROPHIL,[1],8%
same,NUCLEATED RED BLOOD CELLS,[1],0.17 /100WBC
same,PLATELET COUNT,[1],865 x10E3/uL
same,ALANINE AMINOTRANSFERASE,[1],51.67 u/L
same,ALBUMIN,[1],3.97 G/DL
same,ALKALINE PHOSPHATASE,[1],351.17 u/L
same,ASPARTATE AMINOTRANSFERASE,[1],82.33 u/L
same,BLOOD UREA NITROGEN,[1],15.17 mg/dL
same,CARBON DIOXIDE,[1],34.5 mmol/L
same,CHLORIDE,[1],100 MEQ/L
same,CHOLESTEROL,[1],80.33 mg/dL
same,CREATINE PHOSPHOKINASE,[1],316.5 u/L
same,CREATININE,[1],0.17 mg/dL
same,GLUCOSE,[1],149.17 mg/dL
same,LACTATE DEHYDROGENASE,[1],105.67 u/L
same,LIPASE,[1],9.5 u/L
same,PHOSPHORUS,[1],10.87 mg/dL
same,POTASSIUM,[1],5.47 MEQ/L
same,SODIUM,[1],144.2 MEQ/L
same,TOTAL BILIRUBIN,[1],0.2 mg/dL
same,TOTAL PROTEIN,[1],5.83 G/DL
same,URIC ACID,[1],0.83 mg/dL
same,ABSOLUTE BASOPHIL,[2],0 CELLS/uL
same,ABSOLUTE EOSINOPHIL,[2],0 CELLS/uL
same,ABSOLUTE LYMPHOCYTE,[2],6333.5 CELLS/uL
same,ABSOLUTE MONOCYTE,[2],38.83 CELLS/uL
same,ABSOLUTE SEGMENTED NEUTROPHIL,[2],661 CELLS/uL
same,BASOPHIL,[2],0%
same,EOSINOPHIL,[2],0%
same,ERYTHROCYTE COUNT,[2],5.44 x10E6/uL
same,HEMATOCRIT,[2],34.17%
same,HEMOGLOBIN,[2],13.22 G/DL
same,LEUKOCYTE COUNT,[2],7.03 x10E3/uL
same,LYMPHOCYTE,[2],90.17%
same,MEAN CORPUSCULAR HEMOGLOBIN,[2],24.38 pg
same,MEAN CORPUSCULAR HEMOGLOBIN CONCENTRATION,[2],38.7 G/DL
same,MEAN CORPUSCULAR VOLUME,[2],62.95 fL
same,MONOCYTE,[2],0.5%
same,NEUTROPHIL,[2],9.33%
same,NUCLEATED RED BLOOD CELLS,[2],0 /100WBC
same,PLATELET COUNT,[2],924.33 x10E3/uL
same,ALANINE AMINOTRANSFERASE,[2],52.5 u/L
same,ALBUMIN,[2],3.97 G/DL
same,ALKALINE PHOSPHATASE,[2],364.83 u/L
same,ASPARTATE AMINOTRANSFERASE,[2],82.5 u/L
same,BLOOD UREA NITROGEN,[2],17 mg/dL
same,CARBON DIOXIDE,[2],32.33 mmol/L
same,CHLORIDE,[2],99.6 MEQ/L
same,CHOLESTEROL,[2],75.83 mg/dL
same,CREATINE PHOSPHOKINASE,[2],419 u/L
same,CREATININE,[2],0.21 mg/dL
same,GLUCOSE,[2],155 mg/dL
same,LACTATE DEHYDROGENASE,[2],111.5 u/L
same,LIPASE,[2],11.33 u/L
same,PHOSPHORUS,[2],10.32 mg/dL
same,POTASSIUM,[2],5.37 MEQ/L
same,SODIUM,[2],144.64 MEQ/L
same,TOTAL BILIRUBIN,[2],0.18 mg/dL
same,TOTAL PROTEIN,[2],5.98 G/DL
same,URIC ACID,[2],0.62 mg/dL
same,ABSOLUTE BASOPHIL,[3],0 CELLS/uL
same,ABSOLUTE EOSINOPHIL,[3],50 CELLS/uL
same,ABSOLUTE LYMPHOCYTE,[3],6489 CELLS/uL
same,ABSOLUTE MONOCYTE,[3],75.67 CELLS/uL
same,ABSOLUTE SEGMENTED NEUTROPHIL,[3],285.33 CELLS/uL
same,BASOPHIL,[3],0%
same,EOSINOPHIL,[3],0.67%
same,ERYTHROCYTE COUNT,[3],5.18 x10E6/uL
same,HEMATOCRIT,[3],30.77%
same,HEMOGLOBIN,[3],12.07 G/DL
same,LEUKOCYTE COUNT,[3],6.9 x10E3/uL
same,LYMPHOCYTE,[3],94.33%
same,MEAN CORPUSCULAR HEMOGLOBIN,[3],23.3 pg
same,MEAN CORPUSCULAR HEMOGLOBIN CONCENTRATION,[3],39.2 G/DL
same,MEAN CORPUSCULAR VOLUME,[3],59.47 fL
same,MONOCYTE,[3],1%
same,NEUTROPHIL,[3],4%
same,NUCLEATED RED BLOOD CELLS,[3],0.33 /100WBC
same,PLATELET COUNT,[3],1561 x10E3/uL
same,ALANINE AMINOTRANSFERASE,[3],52.67 u/L
same,ALBUMIN,[3],4.03 G/DL
same,ALKALINE PHOSPHATASE,[3],301.33 u/L
same,ASPARTATE AMINOTRANSFERASE,[3],100 u/L
same,BLOOD UREA NITROGEN,[3],13.67 mg/dL
same,CARBON DIOXIDE,[3],35.67 mmol/L
same,CHLORIDE,[3],98 MEQ/L
same,CHOLESTEROL,[3],80.67 mg/dL
same,CREATINE PHOSPHOKINASE,[3],355.67 u/L
same,CREATININE,[3],0.15 mg/dL
same,GLUCOSE,[3],138.33 mg/dL
same,LACTATE DEHYDROGENASE,[3],108.33 u/L
same,LIPASE,[3],9 u/L
same,PHOSPHORUS,[3],10.47 mg/dL
same,POTASSIUM,[3],5.91 MEQ/L
same,SODIUM,[3],142.8 MEQ/L
same,TOTAL BILIRUBIN,[3],0.17 mg/dL
same,TOTAL PROTEIN,[3],6 G/DL
same,URIC ACID,[3],0.5 mg/dL
same,ABSOLUTE BASOPHIL,[4],0 CELLS/uL
same,ABSOLUTE EOSINOPHIL,[4],15.67 CELLS/uL
same,ABSOLUTE LYMPHOCYTE,[4],5856.67 CELLS/uL
same,ABSOLUTE MONOCYTE,[4],77.33 CELLS/uL
same,ABSOLUTE SEGMENTED NEUTROPHIL,[4],217 CELLS/uL
same,BASOPHIL,[4],0%
same,EOSINOPHIL,[4],0.33%
same,ERYTHROCYTE COUNT,[4],4.27 x10E6/uL
same,HEMATOCRIT,[4],27.3%
same,HEMOGLOBIN,[4],10.7 G/DL
same,LEUKOCYTE COUNT,[4],6.17 x10E3/uL
same,LYMPHOCYTE,[4],94%
same,MEAN CORPUSCULAR HEMOGLOBIN,[4],25.1 pg
same,MEAN CORPUSCULAR HEMOGLOBIN CONCENTRATION,[4],39.17 G/DL
same,MEAN CORPUSCULAR VOLUME,[4],64.03 fL
same,MONOCYTE,[4],1.33%
same,NEUTROPHIL,[4],4.33%
same,NUCLEATED RED BLOOD CELLS,[4],0 /100WBC
same,PLATELET COUNT,[4],1370.67 x10E3/uL
same,ALANINE AMINOTRANSFERASE,[4],42 u/L
same,ALBUMIN,[4],3.8 G/DL
same,ALKALINE PHOSPHATASE,[4],313 u/L
same,ASPARTATE AMINOTRANSFERASE,[4],132.33 u/L
same,BLOOD UREA NITROGEN,[4],18.67 mg/dL
same,CARBON DIOXIDE,[4],29.67 mmol/L
same,CHLORIDE,[4],99.67 MEQ/L
same,CHOLESTEROL,[4],65 mg/dL
same,CREATINE PHOSPHOKINASE,[4],254 u/L
same,CREATININE,[4],0.18 mg/dL
same,GLUCOSE,[4],187.33 mg/dL
same,LACTATE DEHYDROGENASE,[4],136.67 u/L
same,LIPASE,[4],9 u/L
same,PHOSPHORUS,[4],10.8 mg/dL
same,POTASSIUM,[4],5.21 MEQ/L
same,SODIUM,[4],143.2 MEQ/L
same,TOTAL BILIRUBIN,[4],0.2 mg/dL
same,TOTAL PROTEIN,[4],5.4 G/DL
same,URIC ACID,[4],0.73 mg/dL
